This note sets out measurements from the CATMoS acute toxicity set (Mansouri et al. 2021).

The nature of this data set: GHS categories as the set defines them, by LD50: 1 up to 5, 2 up to 50, 3 up to 300, 4 up to 2000, 5 above 2000 mg/kg. The settings on record: rat; in vivo; po.
The molecule `CCCCCCCNC(=O)c1cnc2cccc(C)n2c1=O` had a GHS category of 3.

In the case of `Cc1cc(C)[n+]([N-]C(=O)c2ccc(Cl)c(S(N)(=O)=O)c2)c(C)c1`, the GHS category turned out to be 5.

For `CCOC(=O)C1N=C(c2ccccc2F)c2cc(Cl)ccc2NC1=O` (stereo unspecified), the GHS category is on record as 5.

Take `C[C@@H]1CC(C)(C)O[C@](Cn2cncn2)(c2cc3ccccc3o2)O1`: the GHS category is reported as 4. The molecule `CCNC(=O)CCSCc1nnnn1-c1ccccc1` gave a GHS category of 4. In the case of `CCCCCCCCCC(C)C=O` (stereo unspecified) it was 5; in that of `CNC(=O)c1cc(Cl)cc(C)c1NC(=O)c1cc(Br)nn1-c1ncccc1Cl`, 5; in that of `CC1(C)[C@@H](O[C@H]2O[C@H](C(=O)O)[C@@H](O)[C@H](O)[C@H]2O[C@@H]2O[C@H](C(=O)O)[C@@H](O)[C@H](O)[C@H]2O)CC[C@]2(C)[C@H]3C(=O)C=C4[C@@H]5C[C@@](C)(C(=O)O)CC[C@]5(C)CC[C@@]4(C)[C@]3(C)CC[C@@H]12`, 5.

`CCCCCCCCCCCCCCCCOP(=O)(O)O` showed a GHS category of 5. In the case of `O=C1c2ccccc2C2=Nc3cccc4cccc(c34)N12` it was 5. The result for `CCOCC=C(C)CCC=C(C)C` reads 5; that for `B12B3B4B1C234`, 5; that for `COc1ccc2c(c1)CCN(c1ccccc1)C2c1ccc(O)cc1` (stereo unspecified), 4. In the case of `CC1CCCCC1` it was 5; in that of `CC(C)(Sc1cc(C(C)(C)C)c(O)c(C(C)(C)C)c1)Sc1cc(C(C)(C)C)c(O)c(C(C)(C)C)c1`, 5. Regarding `COc1ccccc1N1CCN(/C(N)=N/c2ccc(Cl)c(Cl)c2)CC1`, the GHS category is 4. As to `CC(C)c1ccc(C(C)(C)C(C)(C)c2ccc(C(C)C)cc2)cc1`, the GHS category turned out to be 5. Turning to `CC(C=O)(CO)CO`, the GHS category is reported as 5. Consider `CC(C)(C)c1cc2c(c(C(C)(C)C)c1)OP(=O)(O)Oc1c(cc(C(C)(C)C)cc1C(C)(C)C)C2`, for which the GHS category turned out to be 5.

On to `C[C@H]1CO[C@@](Cn2cncn2)(c2cc3ccccc3o2)O1`, for which the GHS category turned out to be 4.

`CC(C)(Oc1ccc(Cl)cc1)C(=O)OC(COC(=O)c1cccnc1)COC(=O)c1cccnc1` had a GHS category of 5. With `CC(=O)NCc1c(I)c(NC(C)=O)c(I)c(C(=O)O)c1I`, the GHS category worked out at 5.

Take `CC(=O)NCCCOc1ccc(C(=O)N2CCC(N3C(=O)CCc4ccccc43)CC2)cc1`: the GHS category turned out to be 5. With `CCC=CCCCCCCCCCCCCCCOCC`, the GHS category turned out to be 5. In the case of `CCCC(=O)c1ccc2c(c1)OC(C)(C)C(=O)N2C` it was 5. `c1ccc(COc2ccc3ccccc3c2)cc1` came in with a GHS category of 5. As for `COC(=O)c1ccc2cc(C(=O)OC)ccc2c1`, the GHS category was 5. The result for `CCCCCCCCOCCCCCCCC` reads 5; that for `CC(=O)OCC(=O)C1(O)C(O)CC2C3CCC4=CC(=O)C=CC4(C)C3=CCC21C` (stereo unspecified), 5; that for `CN1CC(c2ccn(-c3ccccc3)n2)CC2c3cccc4[nH]cc(c34)CC21` (stereo unspecified), 4. For the molecule `CCn1c2ccccc2c2ccccc21`, the GHS category was found to be 5. `C[C@@H]1C[C@H]2[C@@H]3CCC4=CC(=O)C=C[C@]4(C)[C@@]3(F)[C@@H](O)C[C@]2(C)[C@@]1(O)C(=O)COS(=O)(=O)O`: the GHS category is recorded as 5. Turning to `FC(F)(F)C(F)(F)C(Cl)Cl`, the GHS category is recorded as 5.

Molecule `CCCOC(=O)Cc1ccc(OCC(=O)N(CC)CC)c(OC)c1` came in with a GHS category of 5.

For `Cc1ccc2oc(C=Cc3nc4cc(C)ccc4o3)nc2c1`, the GHS category is given as 5. As for `Oc1c(Br)ccc2c(O)c(Br)ccc12`, the GHS category is 5. Consider `CCCNC(=O)c1sc(-c2ccc(OC)cc2)nc1C`, for which the GHS category was found to be 5.

For `CC(O)CSCCCCCCCCC(C)(C)C` (stereo unspecified), the GHS category is given as 5.

`CC(C)(O)CCC(C)(C)O`: the GHS category is recorded as 5.

Turning to `CC1CC(OC(=O)COc2ccc(Cl)cc2)CC(C)(C)C1` (stereo unspecified), the GHS category is recorded as 5. In the case of `CCCC(Cl)CCCC(Cl)CCC(Cl)CCC(Cl)CCC(Cl)CCCC(Cl)CCC` (stereo unspecified) it was 5; in that of `CC(=O)C(N=Nc1cccc(OCCOc2ccccc2N=NC(C(C)=O)C(=O)Nc2ccc3[nH]c(=O)[nH]c3c2)c1)C(=O)Nc1ccc2[nH]c(=O)[nH]c2c1` (stereo unspecified), 5; in that of `CC(C)CCC1CCC(O)CC1` (stereo unspecified), 5.

Consider `CCC[C@H]1CCO[C@@H](C)S1`, for which the GHS category turned out to be 5. In the case of `COc1cc2c(cc1OC)C(c1ccccc1Cl)N(c1ccccc1)CC2` (stereo unspecified) it was 4; in that of `CCc1cccc(C)c1Nc1ccc(Nc2c(C)cccc2CC)c2c1C(=O)c1ccccc1C2=O`, 5; in that of `C[Si]1(C)O[Si](C)(c2ccccc2)O[Si](C)(C)O[Si](C)(c2ccccc2)O1` (stereo unspecified), 5. In the case of `COc1ccc(N(CCCC(=O)O)C(=O)c2ccc(Cl)cc2)cc1` it was 5.

Consider `Cn1cc(C(=O)Cl)c(C(F)F)n1`, for which the GHS category was 5.

Molecule `CCNC(=O)[C@@H]1CCCN1C(=O)[C@H](CCCNC(=N)N)NC(=O)[C@H](CC(C)C)NC(=O)[C@@H](CC(C)C)NC(=O)[C@H](Cc1ccc(O)cc1)NC(=O)[C@H](CO)NC(=O)[C@H](Cc1c[nH]c2ccccc12)NC(=O)[C@H](Cc1cnc[nH]1)NC(=O)[C@@H]1CCC(=O)N1` gave a GHS category of 5. Molecule `CC(C)=CCC(C#N)(CCN1CCOCC1)c1cccc2ccccc12` (stereo unspecified) showed a GHS category of 4. The result for `CCCCCOC(=O)CCCCC` reads 5; that for `CCCC1OC(Cn2cncn2)(c2cc3ccccc3o2)OCC1(C)C` (stereo unspecified), 4. In the case of `CCC(=O)OCCC(C)CCC=C(C)C` (stereo unspecified) it was 5; in that of `CCCC(=O)O[C@]1(C(=O)COC(C)=O)CC[C@H]2[C@@H]3C[C@H](F)C4=CC(=O)C=C[C@]4(C)[C@@]3(F)[C@@H](O)C[C@@]21C`, 5; in that of `CC(C)=CCCC(C)CCOCC=O` (stereo unspecified), 5. In the case of `CCCc1nc2ccnn2c(N)c1Cc1ccc(-c2ccccc2-c2nn[nH]n2)cc1` it was 4. `CCCCOC(=O)c1ccc(-n2nc(OCCCN(C)C)c3ccccc32)cc1` yielded a GHS category of 4. In the case of `N#CNC1=NCCS1` it was 4. In the case of `CCCCCCCCCCCCCCCCCCOP(=O)(O)O` it was 5; in that of `O=C(c1ccccc1)c1cc([N+](=O)[O-])ccc1S(=O)(=O)NCCCN1CCOCC1`, 4. The result for `CCCC1CCC(=O)O1` (stereo unspecified) reads 5; that for `CCC1COC(=O)O1` (stereo unspecified), 5.

`CCCS(=O)(=O)Nc1ccc(F)c(C(=O)c2cn(C(=O)c3c(Cl)cccc3Cl)c3ncc(Br)cc23)c1F` had a GHS category of 5. `CN1C2=CC(=O)C(=NNC(N)=O)C=C2CC1S(=O)(=O)O` (stereo unspecified) displayed a GHS category of 5.

Consider `CNC(=O)Nc1ccc(Cl)c(Cl)c1`, for which the GHS category is listed as 4. In the case of `O=c1c2ccccc2c(=O)c2c1cc(Cl)c1[nH]c3c([nH]c12)c(Cl)cc1c(=O)c2ccccc2c(=O)c13` it was 5; in that of `N#CCN(CC#N)CC#N`, 3; in that of `C[C@H]1CO[C@@](Cn2cncn2)(c2cc3cc(Cl)cc(Cl)c3o2)O1`, 4.

The molecule `CNc1ccc(Cl)cc1C(=O)c1ccccc1Cl` showed a GHS category of 5. For the molecule `ICC1CCC(CI)CC1` (stereo unspecified), the GHS category is on record as 5. Molecule `CCCCCCCC(=O)OOC(C)(C)C` displayed a GHS category of 5. For `Cc1cc(C(=O)Nc2ccccc2C(F)(F)F)n[nH]1`, the GHS category is listed as 5. In the case of `CCCCNC(=O)c1cnc2cccc(C)n2c1=O`, the GHS category is given as 3. `CC(=O)OCC1=C(C(=O)O)N2C(=O)[C@@H](NC(=O)[C@H](N)c3ccccc3)[C@H]2SC1` returned a GHS category of 5. `CC/C=C\CC(C)OC(=O)c1ccccc1O` (stereo unspecified) gave a GHS category of 5.

With `CCCCCCCCC=COCC`, the GHS category was 5. With `CC(=O)N(CC(O)CO)c1c(I)c(C(=O)NCC(O)CO)c(I)c(C(=O)NCC(O)CO)c1I` (stereo unspecified), the GHS category worked out at 5.

In the case of `CCCCCCCOCC(COCCCCCCC)(COCCCCCCC)COCCCCCCC`, the GHS category is 5.

In turn, `NC[C@@H]1CC[C@@H](N)[C@@H](O[C@H]2[C@H](O)[C@@H](O[C@H]3O[C@H](CO)[C@@H](O)[C@H](N)[C@H]3O)[C@H](N)C[C@@H]2N)O1` displayed a GHS category of 5. The result for `CN1c2c(oc(=NC3CCCCC3)n(C3CCCCC3)c2=O)-c2sc(Cl)cc2S1(=O)=O` reads 2. Molecule `O=C(OCCOCCO)c1ccccc1Nc1ccc(O)c(C(F)(F)F)c1` showed a GHS category of 4. In the case of `CO/C=C(/C(=O)OC)c1ccccc1Oc1cc(Oc2ccccc2C#N)ncn1` it was 5.

On to `O=c1[nH]c(=O)[nH]c(=O)[nH]1`, for which the GHS category is 5. In the case of `CC(=O)O[C@]1(C(C)=O)CC[C@H]2[C@@H]3C=C(C)C4=CC(=O)CC[C@@H]4[C@H]3CC[C@@]21C` it was 5; in that of `C=C(CC)CCCC(C)(C)OC(C)=O`, 5.

`Cc1ccc(Nc2ccc(Nc3ccc(C)cc3S(=O)(=O)O)c3c2C(=O)c2ccccc2C3=O)c(S(=O)(=O)O)c1` displayed a GHS category of 5. In the case of `NC(=O)Oc1ccccc1C(=O)Oc1ccccc1[N+](=O)[O-]` it was 5. In the case of `C=CCCCCCCCCC(OCC=C(C)CCC=C(C)C)OCC=C(C)CCC=C(C)C` (stereo unspecified) it was 5; in that of `CCCCCCCCCCOC1OC(CO)C(O)C(O)C1O` (stereo unspecified), 5; in that of `CC1=CC1`, 5. The result for `CCOC(=O)CP(=O)(OCC)OCC` reads 5. Molecule `c1ccc(-c2cc3ccccc3[nH]2)cc1` registered a GHS category of 5. The result for `CSc1nnc(C(C)(C)C)c(=O)n1/N=C/C(C)C` reads 5; that for `CN1CC(O)C2=C/C(=N/NC(N)=O)C(=O)C=C21` (stereo unspecified), 5. In the case of `O=S(=O)(O)c1ccc2c(c1)-c1nc-2nc2[nH]c(nc3nc(nc4[nH]c(n1)c1ccc(S(=O)(=O)O)cc41)-c1ccc(S(=O)(=O)O)cc1-3)c1ccc(S(=O)(=O)Nc3ccc(S(=O)(=O)CCO)cc3)cc21` it was 5.
